According to US11578072B2, “Spiro-lactam NMDA receptor modulators and uses thereof” (Aptinyx Inc., priority 2018, dated 2023):

Columns and labels:
[1] = Microsomal stability (Human); format: in vitro ADME; conditions: human microsomes, after 60 minutes
Experimental: Microsomal stability of disclosed compounds was investigated. The following table indicates the percent of compound remaining after 60 minutes.

Plasma stability (Rat) = format: in vitro ADME; conditions: after 60 minutes
Experimental: Plasma stability of disclosed compounds was investigated. The following table indicates the percent of compound remaining after 60 minutes.

NMDAR2D [2] = target: T1, NMDAR2D (Homo sapiens, UniProt O15399); assay: NMDAR agonist assay, [3H]MK-801 binding, NMDAR2D expressing HEK cell membranes; format: biochemical; conditions: 50 μM glutamate
T1 construct: expressed in transfected cells; host or cells: HEK cells (membrane extract)
Experimental: (§1) Assays were conducted as described by Moskal et al., “GLYX-13: a monoclonal antibody-derived peptide that acts as an N-methyl-D-aspartate receptor modulator,” Neuropharmacology, 49, 1077-87, 2005. These studies were designed to determine if the test compounds act to facilitate NMDAR activation in NMDAR2A, NMDAR2B, NMDAR2C or NMDAR2D expressing HEK cell membranes as measured by increases in [3H]MK-801 binding.
(§2) In the assay, 300 μg of NMDAR expressing HEK cell membrane extract protein was preincubated for 15 minutes at 25° C. in the presence of saturating concentrations of glutamate (50 μM) and varying concentrations of test compound (1×10^−15M-1×10^−7M), or 1 mM glycine. Following the addition of 0.3 μCi of [3H]MK-801 (22.5 Ci/mmol), reactions were again incubated for 15 minutes at 25° C. (nonequilibrium conditions). Bound and free [3H]MK-801 were separated via rapid filtration using a Brandel apparatus.
(§3) In analyzing the data, the DPM (disintegrations per minute) of [3H]MK-801 remaining on the filter were measured for each concentration of test compound or for 1 mM glycine. The DPM values for each concentration of a ligand (N=2) were averaged. The baseline value was determined from the best fit curve of the DPM values modeled using the GraphPad program and the log(agonist) vs. response(three parameters) algorithm was then subtracted from all points in the dataset. The % maximal [3H]MK-801 binding was then calculated relative to that of 1 mM glycine: all baseline subtracted DPM values were divided by the average value for 1 mM glycine. The EC50 and % maximal activity were then obtained from the best fit curve of the % maximal [3H]MK-801 binding data modelled using the GraphPad program and the log(agonist) vs. response(three parameters) algorithm.
(§4) The tables below summarize the results for the wild type NMDAR agonists NMDAR2A, NMDAR2B, NMDAR2C, and NMDAR2D, and whether the compound is not an agonist (−), is an agonist (+), or is a strong agonist (++), where column A is based on the % maximal [3H]MK-801 binding relative to 1 mM glycine (−=0; <100%=+; and >100%=++); and column B is based on log EC50 values (0=−; >1×10^−9 M (e.g., −8)=+; and <1×10^−9 M (e.g., −10)++).

NMDAR2D [3] = target: T2, NMDAR2D (Homo sapiens, UniProt O15399+Q05586); assay: as above; format: biochemical; conditions: 50 μM glutamate, read-out: NMDAR2D B: log EC50 (converted)
T2 construct: expressed in transfected cells; host or cells: HEK cells (membrane extract)
Experimental: as §1, §2, §3, §4

[4] = Oral pharmacokinetics in rats (plasma, brain, CSF); format: in vivo, Sprague Dawley rats; conditions: rat, oral gavage, 10 mg/kg
Experimental: In another experiment, Sprague Dawley rats were dosed per os (oral gavage) using a normal saline formulation containing 10 mg/kg of the compounds identified in the table below. Plasma, brain, and CSF samples were analyzed at various time points over a 24 hour period. The table below summarizes the results of the oral pharmacokinetics, where the first three values (Tmax, Cmax and AUClast) are plasma values.

NMDAR2C = target: T3, NMDAR2C (Homo sapiens, UniProt Q14957); assay: NMDAR agonist assay, [3H]MK-801 binding, NMDAR2C expressing HEK cell membranes; format: biochemical; conditions: 50 μM glutamate
T3 construct: expressed in transfected cells; host or cells: HEK cells (membrane extract)
T3 sequence (Q14957 20-1233, species assumed, other chains not shown): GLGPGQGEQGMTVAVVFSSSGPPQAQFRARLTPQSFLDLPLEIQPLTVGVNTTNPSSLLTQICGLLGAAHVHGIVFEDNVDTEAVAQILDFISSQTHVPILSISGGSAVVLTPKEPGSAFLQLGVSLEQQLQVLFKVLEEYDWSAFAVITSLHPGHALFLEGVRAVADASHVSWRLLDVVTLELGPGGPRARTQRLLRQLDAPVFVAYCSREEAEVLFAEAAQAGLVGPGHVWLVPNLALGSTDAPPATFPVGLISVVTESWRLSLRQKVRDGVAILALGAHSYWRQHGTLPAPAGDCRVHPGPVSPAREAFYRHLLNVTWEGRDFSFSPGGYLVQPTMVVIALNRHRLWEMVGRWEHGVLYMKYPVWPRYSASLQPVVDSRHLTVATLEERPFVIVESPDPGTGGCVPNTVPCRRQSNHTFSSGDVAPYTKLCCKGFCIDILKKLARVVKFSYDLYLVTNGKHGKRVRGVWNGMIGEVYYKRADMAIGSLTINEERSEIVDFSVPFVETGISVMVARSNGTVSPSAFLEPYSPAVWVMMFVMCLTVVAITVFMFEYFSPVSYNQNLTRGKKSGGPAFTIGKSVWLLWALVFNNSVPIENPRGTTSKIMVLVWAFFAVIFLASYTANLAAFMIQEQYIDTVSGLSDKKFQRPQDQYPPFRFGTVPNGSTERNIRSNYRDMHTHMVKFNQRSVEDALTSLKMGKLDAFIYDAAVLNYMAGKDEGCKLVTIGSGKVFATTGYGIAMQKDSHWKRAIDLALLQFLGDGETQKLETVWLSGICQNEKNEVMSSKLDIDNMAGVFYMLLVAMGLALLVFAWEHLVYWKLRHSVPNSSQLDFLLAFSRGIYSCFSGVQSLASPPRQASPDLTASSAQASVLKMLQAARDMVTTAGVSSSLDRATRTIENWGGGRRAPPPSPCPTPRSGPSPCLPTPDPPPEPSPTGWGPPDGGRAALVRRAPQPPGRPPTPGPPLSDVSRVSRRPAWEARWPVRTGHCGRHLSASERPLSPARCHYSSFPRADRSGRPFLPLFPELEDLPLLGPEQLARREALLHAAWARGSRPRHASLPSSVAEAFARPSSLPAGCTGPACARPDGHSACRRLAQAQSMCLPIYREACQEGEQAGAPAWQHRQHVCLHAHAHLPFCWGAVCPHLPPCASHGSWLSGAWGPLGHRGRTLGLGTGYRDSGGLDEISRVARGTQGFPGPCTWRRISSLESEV
Experimental: as §1
as §2, with “Bound and free [3H]MK-801 were separated via rapid filtration using a Brandel apparatus.” left out
as §3, with “The DPM values for each concentration of a ligand (N=2) were averaged.” left out, “The EC50 and % maximal activity were then obtained from the best fit curve of the % maximal [3H]MK-801 binding data modelled using the GraphPad program and the log(agonist) vs. response(three parameters) algorithm.” left out

[5] = IV pharmacokinetics in rats; conditions: Sprague Dawley, in vivo, rat, 2 mg/kg, normal saline
Experimental: Sprague Dawley rats were dosed intravenously using a normal saline formulation containing 2 mg/kg of the compounds identified in the below table. The table below summarizes the results of the IV pharmacokinetics.

NMDAR2B = target: T4, NMDAR2B (Homo sapiens, UniProt Q13224); assay: NMDAR agonist assay, [3H]MK-801 binding, NMDAR2B expressing HEK cell membranes; format: biochemical; conditions: 50 μM glutamate
T4 construct: expressed in transfected cells; host or cells: HEK cells (membrane extract)
T4 sequence (Q13224 27-1484, species assumed, other chains not shown): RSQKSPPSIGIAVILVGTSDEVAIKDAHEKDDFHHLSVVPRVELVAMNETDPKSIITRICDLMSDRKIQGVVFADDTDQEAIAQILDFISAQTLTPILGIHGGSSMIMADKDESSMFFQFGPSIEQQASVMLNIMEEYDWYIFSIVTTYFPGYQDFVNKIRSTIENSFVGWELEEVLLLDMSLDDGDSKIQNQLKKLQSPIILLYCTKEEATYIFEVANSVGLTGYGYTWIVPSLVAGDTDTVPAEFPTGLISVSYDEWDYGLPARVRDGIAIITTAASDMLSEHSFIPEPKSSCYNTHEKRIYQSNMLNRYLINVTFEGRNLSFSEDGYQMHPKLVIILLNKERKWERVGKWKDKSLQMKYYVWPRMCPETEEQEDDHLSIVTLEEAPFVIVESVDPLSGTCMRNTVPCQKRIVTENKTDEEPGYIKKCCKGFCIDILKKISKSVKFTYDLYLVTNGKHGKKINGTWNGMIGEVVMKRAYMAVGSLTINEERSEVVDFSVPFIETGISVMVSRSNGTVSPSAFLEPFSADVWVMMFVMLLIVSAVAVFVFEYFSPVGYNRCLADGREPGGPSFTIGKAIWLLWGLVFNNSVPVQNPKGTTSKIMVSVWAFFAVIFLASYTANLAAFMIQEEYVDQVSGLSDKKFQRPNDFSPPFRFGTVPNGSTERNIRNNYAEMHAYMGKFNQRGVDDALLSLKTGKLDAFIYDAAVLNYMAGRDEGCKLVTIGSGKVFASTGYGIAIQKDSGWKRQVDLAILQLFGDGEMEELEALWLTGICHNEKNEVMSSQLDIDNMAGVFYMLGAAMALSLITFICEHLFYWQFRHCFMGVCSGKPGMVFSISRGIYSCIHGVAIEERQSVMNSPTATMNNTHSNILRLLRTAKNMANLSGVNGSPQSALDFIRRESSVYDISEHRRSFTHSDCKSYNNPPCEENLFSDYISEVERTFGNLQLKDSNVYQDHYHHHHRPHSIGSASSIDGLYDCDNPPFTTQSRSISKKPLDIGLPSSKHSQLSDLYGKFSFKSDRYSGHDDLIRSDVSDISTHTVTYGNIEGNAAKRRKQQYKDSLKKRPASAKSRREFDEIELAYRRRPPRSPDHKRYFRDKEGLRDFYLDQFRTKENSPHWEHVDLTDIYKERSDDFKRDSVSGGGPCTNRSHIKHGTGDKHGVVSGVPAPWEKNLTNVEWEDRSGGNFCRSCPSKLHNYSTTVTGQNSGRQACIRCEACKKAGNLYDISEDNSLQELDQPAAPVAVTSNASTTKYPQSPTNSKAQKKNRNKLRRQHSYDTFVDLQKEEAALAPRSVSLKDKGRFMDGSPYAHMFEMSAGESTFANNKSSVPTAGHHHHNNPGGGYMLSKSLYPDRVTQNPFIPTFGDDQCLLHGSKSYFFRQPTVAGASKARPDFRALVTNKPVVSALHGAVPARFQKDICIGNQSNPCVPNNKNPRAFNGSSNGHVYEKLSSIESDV
Experimental: as §1, §2, §3, §4

NMDAR2A = target: T5, NMDAR2A (Homo sapiens, UniProt Q12879); assay: NMDAR agonist assay, [3H]MK-801 binding, NMDAR2A expressing HEK cell membranes; format: biochemical; conditions: 50 μM glutamate
T5 construct: expressed in transfected cells; host or cells: HEK cells (membrane extract)
T5 sequence (Q12879 23-1464, species assumed, other chains not shown): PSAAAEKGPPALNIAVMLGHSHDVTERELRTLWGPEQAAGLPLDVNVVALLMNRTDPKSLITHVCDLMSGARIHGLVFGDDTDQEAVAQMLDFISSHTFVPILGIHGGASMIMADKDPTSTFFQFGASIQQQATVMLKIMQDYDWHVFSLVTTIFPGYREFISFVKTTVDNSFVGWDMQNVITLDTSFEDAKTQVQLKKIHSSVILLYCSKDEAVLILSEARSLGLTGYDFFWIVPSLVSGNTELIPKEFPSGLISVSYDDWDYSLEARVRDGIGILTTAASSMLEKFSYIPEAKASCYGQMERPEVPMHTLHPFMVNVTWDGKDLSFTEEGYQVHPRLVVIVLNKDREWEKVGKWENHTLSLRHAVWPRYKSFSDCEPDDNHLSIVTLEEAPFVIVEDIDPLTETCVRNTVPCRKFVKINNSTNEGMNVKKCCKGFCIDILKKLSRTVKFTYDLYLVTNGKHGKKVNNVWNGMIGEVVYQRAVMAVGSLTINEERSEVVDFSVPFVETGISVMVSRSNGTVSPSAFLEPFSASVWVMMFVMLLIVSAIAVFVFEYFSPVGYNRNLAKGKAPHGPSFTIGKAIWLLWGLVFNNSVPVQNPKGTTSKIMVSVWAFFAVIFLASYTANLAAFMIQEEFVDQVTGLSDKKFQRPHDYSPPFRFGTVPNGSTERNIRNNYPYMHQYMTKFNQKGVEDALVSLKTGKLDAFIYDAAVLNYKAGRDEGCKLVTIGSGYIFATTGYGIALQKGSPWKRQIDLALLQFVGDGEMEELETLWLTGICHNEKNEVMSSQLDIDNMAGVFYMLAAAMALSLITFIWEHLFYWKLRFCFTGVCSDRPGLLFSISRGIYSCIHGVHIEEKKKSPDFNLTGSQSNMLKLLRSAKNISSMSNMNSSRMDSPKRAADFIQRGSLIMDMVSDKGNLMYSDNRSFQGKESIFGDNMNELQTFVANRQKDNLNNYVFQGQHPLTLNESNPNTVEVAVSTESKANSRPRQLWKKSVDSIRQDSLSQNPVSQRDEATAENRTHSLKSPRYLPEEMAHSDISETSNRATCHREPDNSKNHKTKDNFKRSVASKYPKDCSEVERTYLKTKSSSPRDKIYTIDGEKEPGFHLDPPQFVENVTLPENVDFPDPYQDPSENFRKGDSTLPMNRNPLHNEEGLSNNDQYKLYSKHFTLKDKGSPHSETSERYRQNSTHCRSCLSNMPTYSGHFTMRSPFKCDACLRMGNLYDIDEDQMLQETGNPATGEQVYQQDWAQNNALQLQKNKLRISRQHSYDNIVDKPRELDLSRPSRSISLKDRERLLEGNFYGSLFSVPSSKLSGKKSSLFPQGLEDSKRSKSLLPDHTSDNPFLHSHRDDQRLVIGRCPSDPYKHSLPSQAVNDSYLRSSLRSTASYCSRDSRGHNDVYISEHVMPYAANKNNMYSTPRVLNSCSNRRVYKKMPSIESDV
Experimental: as §1, §2, §3, §4

In the case of `CC(C)C(=O)N1CCC2(CCCNC2=O)CC1` [Compound AD, 9-isobutyryl-2,9-diazaspiro[5.5]undecan-1-one], the “Microsomal (Human): percent of compound remaining” value [1] is reported as 100%, the “Plasma (Rat): percent of compound remaining” value (Plasma stability (Rat)) is reported as 95% and the “NMDAR2D A: % maximal [3H]MK-801 binding relative to 1 mM glycine” value (NMDAR2D [2]) is reported as “+ (<100%=+)”. The EC50 (NMDAR2D [3]) was < 1 nM, the bioavailability ([4]; Sprague Dawley, plasma) was 70% and the AUC(0-t) ([4]; Sprague Dawley, plasma) was 18400 ng·h/mL. For the same molecule, the Cmax ([4]; Sprague Dawley, plasma) was 8540 ng/mL, the Tmax ([4]; Sprague Dawley, plasma) was 0.33 h and the “CSF Cmax” value ([4]; CSF) was 4697 ng/mL. The “Brain Cmax” value ([4]; brain) was 4833 ng/mL, the “NMDAR2C A: % maximal [3H]MK-801 binding relative to 1 mM glycine” value (NMDAR2C) was “+ (<100%=+)” and the EC50 (NMDAR2C; read-out: NMDAR2C B: log EC50 (converted)) was < 1 nM. It also gave an AUC(0-t) [5] of 5280 ng·h/mL, a Cmax [5] of 3790 ng/mL and a clearance [5] of 6.22 mL/min/kg. For the same molecule, the half-life [5] was 6.37 h, the Vd ([5]; read-out: Vss) was 0.92 L/kg and the “NMDAR2B A: % maximal [3H]MK-801 binding relative to 1 mM glycine” value (NMDAR2B) was “+ (<100%=+)”. For the same molecule, the EC50 (NMDAR2B; read-out: NMDAR2B B: log EC50 (converted)) was < 1 nM, the “NMDAR2A A: % maximal [3H]MK-801 binding relative to 1 mM glycine” value (NMDAR2A) was “+ (<100%=+)” and the EC50 (NMDAR2A; read-out: NMDAR2A B: log EC50 (converted)) was < 1 nM.
